Experimental data from US20180327461A1, “COMPOSITIONS AND METHODS FOR CONTROL OF VECTOR-BORNE DISEASE” (STC.UNM, priority 2015, published 2018).

Tests used:
[1] = test system: P. agglomerans; type: cell-based, Pantoea agglomerans
[2] = test system: X. fastidiosa strain Temecula; type: cell-based, Xylella fastidiosa

Compound | concentration killing P. agglomerans relative to concentration killing X. fastidiosa [1] | concentration that killed P. agglomerans [1] [µM] | concentration that killed X. fastidiosa [2] [µM] | toxicity to X. fastidiosa compared with P. agglomerans [2]
CC[C@H](C)[C@H](NC(=O)CN)C(=O)NCC(=O)N[C@@H](C)C(=O)N[C@H](C(=O)N[C@@H](CC(C)C)C(=O)N[C@@H](CCCCN)C(=O)N[C@H](C(=O)N[C@@H](CC(C)C)C(=O)N[C@H](C(=O)N[C@H](C(=O)NCC(=O)N[C@@H](CC(C)C)C(=O)N1CCC[C@H]1C(=O)N[C@@H](C)C(=O)N[C@@H](CC(C)C)C(=O)N[C@H](C(=O)N[C@@H](CO)C(=O)N[C@@H](Cc1c[nH]c2ccccc12)C(=O)N[C@H](C(=O)N[C@@H](CCCCN)C(=O)N[C@@H](CCCNC(=N)N)C(=O)N[C@@H](CCCCN)C(=O)N[C@@H](CCCNC(=N)N)C(=O)N[C@@H](CCC(N)=O)C(=O)N[C@@H](CCC(N)=O)C(N)=O)[C@@H](C)CC)[C@@H](C)CC)[C@@H](C)O)[C@@H](C)O)C(C)C)C(C)C [melittin, Melittin] | five times higher | 25 | 5 | more toxic to X. fastidiosa than P. agglomerans
scorpine-like molecule [SLM] | – | > 75 | 25 | more toxic to X. fastidiosa than P. agglomerans
